Source: patent publication US8088769B2, “Cyanopyrimidinones” (Boehringer Ingelheim International GmbH, priority 2004, dated 2012)

Key:
PDE9A [1] = molecular target: T1, PDE9A (Homo sapiens, UniProt O76083); conditions: concentrations of up to 100 μM; cited from earlier work
PDE1C = molecular target: T2, PDE1C (Homo sapiens, UniProt Q14123); assay: PDE inhibition, recombinant PDE1C (SPA); format: biochemical; conditions: human isoenzyme
T2 construct: made in house; host or cells: Sf9 (baculovirus, pFASTBAC)
Text: (§1) Recombinant PDE1C (GenBank/EMBL Accession Number: NM_005020, Loughney et al. J. Biol. Chem. 1996 271, 796-806), PDE2A (GenBank/EMBL Accession Number: NM_002599, Rosman et al. Gene 1997 191, 89-95), PDE3B (GenBank/EMBL Accession Number: NM_000922, Miki et al. Genomics 1996, 36, 476-485), PDE4B (GenBank/EMBL Accession Number: NM_002600, Obernolte et al. Gene. 1993, 129, 239-247), PDE5A (GenBank/EMBL Accession Number: NM_001083, Loughney et al. Gene 1998, 216, 139-147), PDE7B (GenBank/EMBL Accession Number: NM_018945, Hetman et al. Proc. Natl. Acad. Sci. U.S.A. 2000, 97, 472-476), PDE8A (GenBank/EMBL Accession Number: AF—056490, Fisher et al. Biochem. Biophys. Res. Commun. 1998, 246, 570-577), PDE9A (Fisher et al., J. Biol. Chem., 1998, 273 (25): 15559-15564), PDE10A (GenBank/EMBL Accession Number: NM_06661, Fujishige et al. J Biol Chem. 1999, 274, 18438-45), PDE11A (GenBank/EMBL Accession Number: NM_016953, Fawcett et al. Proc. Natl. Acad. Sci. 2000, 97, 3702-3707) were expressed in Sf9 cells with the aid of the pFASTBAC baculovirus expression system (GibcoBRL).
(§2) The test substances are dissolved in 100% DMSO and serially diluted to determine their in vitro effect on PDE9A. Typically, serial dilutions from 200 μM to 1.6 μM are prepared (resulting final concentrations in the assay: 4 μM to 0.032 μM). 2 μl portions of the diluted substance solutions are introduced into the wells of microtitre plates (Isoplate; Wallac Inc., Atlanta, Ga.). Then 50 μl of a dilution of the PDE9A preparation described above are added. […] The plates are then measured for 30 s per well in a Microbeta scintillation counter (Wallac Inc., Atlanta, Ga.). IC50 values are determined from the graphical plot of the substance concentration versus the percentage inhibition.
(§3) The in vitro effect of test substances on recombinant PDE3B, PDE4B, PDE7B, PDE8A, PDE10A and PDE11A is determined by the assay protocol described above for PDE9A with the following adaptations: the substrate used is [5′,8-^3H]adenosine 3′,5′-cyclic phosphate (1 μCi/μl; Amersham Pharmacia Biotech., Piscataway, N.J.). […]

PDE2A = molecular target: T3, PDE2A (Homo sapiens, UniProt O00408); assay: PDE inhibition, recombinant PDE2A (SPA); format: biochemical; conditions: human isoenzyme
T3 construct: made in house; host or cells: Sf9 (baculovirus, pFASTBAC)
T3 sequence (O00408 whole entry): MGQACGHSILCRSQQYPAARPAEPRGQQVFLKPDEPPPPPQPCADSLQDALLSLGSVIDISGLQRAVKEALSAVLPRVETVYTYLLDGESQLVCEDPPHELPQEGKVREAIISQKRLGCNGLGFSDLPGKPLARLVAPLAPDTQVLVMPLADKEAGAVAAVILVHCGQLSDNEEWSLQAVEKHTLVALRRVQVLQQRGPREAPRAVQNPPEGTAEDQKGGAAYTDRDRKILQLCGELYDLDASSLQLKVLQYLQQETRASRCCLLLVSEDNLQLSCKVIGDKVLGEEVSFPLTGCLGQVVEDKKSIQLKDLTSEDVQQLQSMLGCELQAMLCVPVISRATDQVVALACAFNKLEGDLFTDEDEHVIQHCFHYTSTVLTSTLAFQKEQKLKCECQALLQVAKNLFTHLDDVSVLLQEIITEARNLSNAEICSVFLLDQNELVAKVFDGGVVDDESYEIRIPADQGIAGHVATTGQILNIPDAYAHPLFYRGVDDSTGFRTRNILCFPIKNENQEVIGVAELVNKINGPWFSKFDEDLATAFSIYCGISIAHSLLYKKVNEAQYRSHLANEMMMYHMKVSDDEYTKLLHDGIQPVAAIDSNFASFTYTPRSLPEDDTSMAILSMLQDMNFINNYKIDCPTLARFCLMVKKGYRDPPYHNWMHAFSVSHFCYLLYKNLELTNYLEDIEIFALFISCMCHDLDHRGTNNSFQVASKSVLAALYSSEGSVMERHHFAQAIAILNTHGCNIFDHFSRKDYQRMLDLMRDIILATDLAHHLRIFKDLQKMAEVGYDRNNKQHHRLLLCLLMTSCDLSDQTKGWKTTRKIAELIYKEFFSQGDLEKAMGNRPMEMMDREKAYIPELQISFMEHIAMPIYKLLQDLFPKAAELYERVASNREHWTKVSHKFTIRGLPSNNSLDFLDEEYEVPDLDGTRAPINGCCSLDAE
Text: as §1, §2, §3

PDE3B = molecular target: T4, PDE3B (Homo sapiens, UniProt Q13370); assay: PDE inhibition, recombinant PDE3B (SPA); format: biochemical; conditions: human isoenzyme
T4 construct: made in house; host or cells: Sf9 (baculovirus, pFASTBAC)
T4 sequence (Q13370 whole entry): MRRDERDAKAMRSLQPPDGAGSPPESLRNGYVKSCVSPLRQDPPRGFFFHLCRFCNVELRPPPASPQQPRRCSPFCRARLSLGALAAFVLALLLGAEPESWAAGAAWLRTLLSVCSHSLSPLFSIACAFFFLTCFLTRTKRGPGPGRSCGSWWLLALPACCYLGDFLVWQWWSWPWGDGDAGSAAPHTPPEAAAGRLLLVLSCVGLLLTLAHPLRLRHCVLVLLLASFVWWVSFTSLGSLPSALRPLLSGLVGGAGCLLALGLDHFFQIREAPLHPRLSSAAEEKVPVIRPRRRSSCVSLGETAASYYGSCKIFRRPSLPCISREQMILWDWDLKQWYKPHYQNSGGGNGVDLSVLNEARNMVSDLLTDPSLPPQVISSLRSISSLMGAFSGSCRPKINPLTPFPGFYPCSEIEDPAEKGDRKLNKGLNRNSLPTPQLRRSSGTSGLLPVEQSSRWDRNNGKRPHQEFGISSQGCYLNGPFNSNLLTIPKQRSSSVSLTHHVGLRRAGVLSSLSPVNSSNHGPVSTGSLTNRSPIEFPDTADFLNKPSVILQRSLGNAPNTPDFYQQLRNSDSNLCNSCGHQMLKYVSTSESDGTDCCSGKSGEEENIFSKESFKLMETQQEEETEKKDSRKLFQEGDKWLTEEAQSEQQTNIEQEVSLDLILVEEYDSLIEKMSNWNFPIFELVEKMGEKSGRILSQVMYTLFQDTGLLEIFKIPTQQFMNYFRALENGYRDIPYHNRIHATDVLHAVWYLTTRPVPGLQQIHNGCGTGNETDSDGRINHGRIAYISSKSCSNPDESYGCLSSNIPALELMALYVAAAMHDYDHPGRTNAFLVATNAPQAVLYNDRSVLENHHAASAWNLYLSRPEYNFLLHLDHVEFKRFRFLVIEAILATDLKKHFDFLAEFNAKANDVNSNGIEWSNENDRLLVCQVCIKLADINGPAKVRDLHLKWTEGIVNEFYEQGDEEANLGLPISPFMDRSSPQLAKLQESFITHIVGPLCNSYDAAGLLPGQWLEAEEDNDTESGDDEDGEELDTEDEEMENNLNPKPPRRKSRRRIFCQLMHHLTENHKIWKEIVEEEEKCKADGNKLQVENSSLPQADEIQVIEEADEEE
Text: as §1, §2, §3

PDE4B = PDE4B (Homo sapiens, UniProt Q07343); assay: PDE inhibition, recombinant PDE4B (SPA); format: biochemical; conditions: human isoenzyme
PDE4B, sequence (Q07343 212-736 limits assumed): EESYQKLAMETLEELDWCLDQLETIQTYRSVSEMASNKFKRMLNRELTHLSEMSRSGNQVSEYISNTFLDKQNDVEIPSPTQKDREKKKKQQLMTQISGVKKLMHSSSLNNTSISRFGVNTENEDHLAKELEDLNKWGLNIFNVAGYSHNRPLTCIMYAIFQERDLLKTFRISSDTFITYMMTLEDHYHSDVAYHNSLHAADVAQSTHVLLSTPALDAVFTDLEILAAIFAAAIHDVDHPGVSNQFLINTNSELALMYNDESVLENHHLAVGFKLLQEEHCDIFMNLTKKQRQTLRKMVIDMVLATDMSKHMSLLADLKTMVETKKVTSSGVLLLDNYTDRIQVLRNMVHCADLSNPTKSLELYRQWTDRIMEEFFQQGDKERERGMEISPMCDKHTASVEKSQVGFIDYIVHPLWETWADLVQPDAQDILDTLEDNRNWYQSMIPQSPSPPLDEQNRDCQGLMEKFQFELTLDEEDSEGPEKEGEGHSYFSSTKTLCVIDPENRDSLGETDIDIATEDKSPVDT
Text: as §1, §2, §3

PDE7B = molecular target: T5, PDE7B (Homo sapiens, UniProt Q9NP56); assay: PDE inhibition, recombinant PDE7B (SPA); format: biochemical; conditions: human isoenzyme
T5 construct: made in house; host or cells: Sf9 (baculovirus, pFASTBAC)
T5 sequence (Q9NP56 whole entry): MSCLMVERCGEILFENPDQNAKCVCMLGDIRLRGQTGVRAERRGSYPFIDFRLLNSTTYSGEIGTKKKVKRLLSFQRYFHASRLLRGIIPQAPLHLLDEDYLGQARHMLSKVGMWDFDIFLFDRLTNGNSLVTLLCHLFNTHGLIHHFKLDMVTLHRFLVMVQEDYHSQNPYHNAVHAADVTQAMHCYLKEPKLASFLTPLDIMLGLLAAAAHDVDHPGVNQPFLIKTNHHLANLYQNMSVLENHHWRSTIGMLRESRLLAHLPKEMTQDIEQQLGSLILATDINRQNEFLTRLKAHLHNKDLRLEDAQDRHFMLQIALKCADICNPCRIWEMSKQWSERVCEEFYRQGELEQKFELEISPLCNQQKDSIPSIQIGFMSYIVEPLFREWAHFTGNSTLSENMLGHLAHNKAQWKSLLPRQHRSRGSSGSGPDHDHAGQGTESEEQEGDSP
Text: as §1, §2, §3

PDE8A = molecular target: T6, PDE8A (Homo sapiens, UniProt O60658); assay: PDE inhibition, recombinant PDE8A (SPA); format: biochemical; conditions: human isoenzyme
T6 construct: made in house; host or cells: Sf9 (baculovirus, pFASTBAC)
Text: Recombinant PDE1C (GenBank/EMBL Accession Number: NM_005020, Loughney et al. J. Biol. Chem. 1996 271, 796-806), PDE2A (GenBank/EMBL Accession Number: NM_002599, Rosman et al. Gene 1997 191, 89-95), PDE3B (GenBank/EMBL Accession Number: NM_000922, Miki et al. Genomics 1996, 36, 476-485), PDE4B (GenBank/EMBL Accession Number: NM_002600, Obernolte et al. Gene. 1993, 129, 239-247), PDE5A (GenBank/EMBL Accession Number: NM_001083, Loughney et al. Gene 1998, 216, 139-147), PDE7B (GenBank/EMBL Accession Number: NM_018945, Hetman et al. Proc. Natl. Acad. Sci. U.S.A. 2000, 97, 472-476), PDE8A (GenBank/EMBL Accession Number: AF—056490, Fisher et al. Biochem. Biophys. Res. Commun. […]
The test substances are dissolved in 100% DMSO and serially diluted to determine their in vitro effect on PDE9A. […] The plates are then measured for 30 s per well in a Microbeta scintillation counter (Wallac Inc., Atlanta, Ga.). IC50 values are determined from the graphical plot of the substance concentration versus the percentage inhibition.
as §3

PDE10A = molecular target: T7, PDE10A (Homo sapiens, UniProt Q9Y233); assay: PDE inhibition, recombinant PDE10A (SPA); format: biochemical; conditions: human isoenzyme
T7 construct: made in house; host or cells: Sf9 (baculovirus, pFASTBAC)
T7 sequence (Q9Y233 1-779 isoform Q9Y233-1): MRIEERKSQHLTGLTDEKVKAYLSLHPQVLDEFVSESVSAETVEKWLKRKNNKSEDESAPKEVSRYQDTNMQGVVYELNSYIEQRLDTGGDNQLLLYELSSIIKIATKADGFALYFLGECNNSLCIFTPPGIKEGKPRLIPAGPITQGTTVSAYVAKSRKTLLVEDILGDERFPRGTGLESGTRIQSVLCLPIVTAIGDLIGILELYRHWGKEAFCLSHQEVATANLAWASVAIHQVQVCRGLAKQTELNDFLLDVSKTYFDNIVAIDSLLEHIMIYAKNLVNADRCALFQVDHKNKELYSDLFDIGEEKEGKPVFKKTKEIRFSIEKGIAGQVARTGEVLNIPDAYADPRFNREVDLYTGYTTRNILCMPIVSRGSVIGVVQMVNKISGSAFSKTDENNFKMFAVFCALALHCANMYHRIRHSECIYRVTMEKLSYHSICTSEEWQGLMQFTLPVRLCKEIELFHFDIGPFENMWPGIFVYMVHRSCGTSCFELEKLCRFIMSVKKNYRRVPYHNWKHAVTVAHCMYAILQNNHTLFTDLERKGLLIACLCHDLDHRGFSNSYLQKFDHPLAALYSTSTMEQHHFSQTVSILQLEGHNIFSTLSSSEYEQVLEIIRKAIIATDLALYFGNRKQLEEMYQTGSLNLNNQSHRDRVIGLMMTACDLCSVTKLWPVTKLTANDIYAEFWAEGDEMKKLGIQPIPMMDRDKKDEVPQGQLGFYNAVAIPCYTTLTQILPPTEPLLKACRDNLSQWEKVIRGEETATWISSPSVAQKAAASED
Text: as §1, §2, §3

PDE11A = molecular target: T8, PDE11A (Homo sapiens, UniProt Q9HCR9); assay: PDE inhibition, recombinant PDE11A (SPA); format: biochemical; conditions: human isoenzyme, read-out: IC50 PDE11
T8 construct: made in house; host or cells: Sf9 (baculovirus, pFASTBAC)
T8 sequence (Q9HCR9 445-933 limits assumed): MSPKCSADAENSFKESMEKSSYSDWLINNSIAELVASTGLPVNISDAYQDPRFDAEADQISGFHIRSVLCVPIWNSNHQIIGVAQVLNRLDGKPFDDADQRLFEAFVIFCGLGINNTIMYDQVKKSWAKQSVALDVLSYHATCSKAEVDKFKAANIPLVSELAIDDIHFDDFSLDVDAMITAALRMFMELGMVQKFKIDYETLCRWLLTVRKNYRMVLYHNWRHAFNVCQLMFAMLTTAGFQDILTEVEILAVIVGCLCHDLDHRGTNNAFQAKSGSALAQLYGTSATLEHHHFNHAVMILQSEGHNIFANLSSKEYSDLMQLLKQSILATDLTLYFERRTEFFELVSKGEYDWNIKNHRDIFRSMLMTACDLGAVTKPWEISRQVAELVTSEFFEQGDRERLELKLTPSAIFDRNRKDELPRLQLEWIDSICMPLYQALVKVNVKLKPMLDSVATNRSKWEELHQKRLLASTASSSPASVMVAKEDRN
Text: as §1, §2, §3

PDE9A [2] = molecular target: T1, PDE9A; assay: PDE inhibition, recombinant PDE9A (SPA); format: biochemical; parameters: made in house; host or cells: Sf9 (baculovirus, pFASTBAC); conditions: human isoenzyme
Experimental: The dilution of the PDE9A preparation is chosen so that less than 70% of the substrate is converted during the subsequent incubation (typical dilution: 1:10 000; dilution buffer: 50 mM Tris/HCl pH 7.5, 8.3 mM MgCl2, 1.7 mM EDTA, 0.2% BSA). […] The plates are then measured for 30 s per well in a Microbeta scintillation counter (Wallac Inc., Atlanta, Ga.). IC50 values are determined from the graphical plot of the substance concentration versus the percentage inhibition.

Murine PDE9A = molecular target: T9, Murine PDE9A (Mus musculus, UniProt O70628); conditions: concentrations below 200 μM; cited from earlier work
T9 sequence (O70628 1-534): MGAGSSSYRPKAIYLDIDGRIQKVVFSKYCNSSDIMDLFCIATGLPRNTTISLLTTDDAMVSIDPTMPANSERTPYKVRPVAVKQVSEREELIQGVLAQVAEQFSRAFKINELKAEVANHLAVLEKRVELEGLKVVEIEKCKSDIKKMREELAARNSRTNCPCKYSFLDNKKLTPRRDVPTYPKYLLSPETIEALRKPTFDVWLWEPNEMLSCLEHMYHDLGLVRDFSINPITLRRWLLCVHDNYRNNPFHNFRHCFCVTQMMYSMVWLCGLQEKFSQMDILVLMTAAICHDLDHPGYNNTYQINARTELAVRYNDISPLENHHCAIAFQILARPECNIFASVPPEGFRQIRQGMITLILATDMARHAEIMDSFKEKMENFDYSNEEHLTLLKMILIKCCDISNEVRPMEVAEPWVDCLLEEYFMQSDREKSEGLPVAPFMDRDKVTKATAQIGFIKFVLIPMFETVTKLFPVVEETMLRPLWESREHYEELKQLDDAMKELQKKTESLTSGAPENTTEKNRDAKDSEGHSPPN

T1 sequence (O76083 whole entry): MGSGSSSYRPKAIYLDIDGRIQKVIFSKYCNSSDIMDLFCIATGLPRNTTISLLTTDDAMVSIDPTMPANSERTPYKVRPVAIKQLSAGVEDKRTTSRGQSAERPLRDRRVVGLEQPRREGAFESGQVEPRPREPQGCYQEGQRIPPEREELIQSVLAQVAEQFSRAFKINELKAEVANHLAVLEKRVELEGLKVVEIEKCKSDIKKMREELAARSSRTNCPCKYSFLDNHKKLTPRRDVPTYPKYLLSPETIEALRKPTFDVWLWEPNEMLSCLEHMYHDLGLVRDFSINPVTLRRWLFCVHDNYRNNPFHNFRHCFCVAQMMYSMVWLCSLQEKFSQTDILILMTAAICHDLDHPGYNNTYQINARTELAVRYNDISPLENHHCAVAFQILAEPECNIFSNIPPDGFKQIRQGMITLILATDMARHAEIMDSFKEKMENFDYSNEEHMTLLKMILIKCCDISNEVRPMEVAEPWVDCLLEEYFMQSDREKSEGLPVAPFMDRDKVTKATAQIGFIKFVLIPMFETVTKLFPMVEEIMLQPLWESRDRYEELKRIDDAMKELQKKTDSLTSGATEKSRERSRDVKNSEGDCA

Structure (SMILES) | inhibition on the isolated enzyme (human PDE9A) (PDE9A [1]) | IC50 (PDE1C) [µM] | IC50 (PDE2A) [µM] | IC50 (PDE3B) [µM] | IC50 (PDE4B) [µM] | IC50 (PDE7B) [µM] | IC50 (PDE8A) [µM] | IC50 (PDE10A) [µM] | IC50 (PDE11A) [µM] | IC50 (PDE9A [2]) [µM] | inhibition of murine PDE9A (Murine PDE9A)
CCOC(=O)C1=C[C@]2(CC)CCCN3CCc4c(n1c1ccccc41)[C@@H]32 [vinpocetine] | no inhibition |  |  |  |  |  |  |  |  |  | 
COc1ccc(-c2ccccc2Cc2nc(N3CCC[C@H]3CO)c(C#N)c(=O)[nH]2)cn1 [Example 112] |  | > 4 | > 4 | > 4 | > 4 | > 4 | > 4 | > 4 | > 4 | 0.005 | 
OCCN(CCO)c1nc(N2CCCCC2)c2nc(N(CCO)CCO)nc(N3CCCCC3)c2n1 [dipyridamole] | no inhibition |  |  |  |  |  |  |  |  |  | 
COc1ccc(C2CNC(=O)C2)cc1OC1CCCC1 (stereo not shown) [rolipram] | no inhibition |  |  |  |  |  |  |  |  |  | 
CC(=O)Nc1ccc(-c2c[nH]c(=O)cn2)cc1 [SKF94120] | no inhibition |  |  |  |  |  |  |  |  |  | 
COc1ccc(-c2ccccc2Cc2nc(N3CCC(CCO)CC3)c(C#N)c(=O)[nH]2)cn1 [Example 38, 4-[4-(2-Hydroxyethyl)piperidin-1-yl]-2-[2-(6-methoxypyridin-3-yl)benzyl]-6-oxo-1,6-dihydropyrimidine-5-carbonitrile] |  | > 4 | > 4 | > 4 | > 4 | 2.2 |  | > 4 | > 4 |  | 
COc1ccc(-c2ccccc2Cc2nc(N3CCCC3)c(C#N)c(=O)[nH]2)cn1 [Example 113] |  | > 4 | > 4 | > 4 | > 4 | > 4 | > 4 | > 4 | 1.5 | 0.015 | 
CC(C)Cn1c(=O)n(C)c(=O)c2[nH]cnc21 [IBMX] | no inhibition |  |  |  |  |  |  |  |  |  | not inhibited
